In US20020082249A1, “Prodrugs of aspartyle protease inhibitors” (priority 1997, published 2002):

Columns and labels:
[1] = Pharmacokinetics in Sprague-Dawley rats following single oral dose; settings: for AUC: rats; for Cmax / half-life: both, Sprague-Dawley, rat, in vivo, po
[2] = Similar oral pharmacokinetic study on dogs (solid capsule and solution formulations); settings: dog, in vivo, 17 mg/kg

| compound 229 detected in blood samples ([1]; after oral administration, first time point blood sample or later samples, suggests first pass metabolism to VX-478) | delivery of VX-478, aqueous dose of 229 versus VX-478 formulations ([1]; aqueous dose of compound 229 compared with the two non-aqueous formulations used for VX-478) | bioavailability, aqueous solution versus other vehicles ([1]; oral administration of compound 229 as an aqueous solution, in comparison to the other vehicles studied) | AUC ([1]; compound 229 PO, 40 mg/Kg molar equiv. of VX-478, vehicle H2O:PG:EtOH 5:4:1) [ug*hr/m1] | AUC ([1]; compound 229 PO, 40 mg/Kg molar equiv. of VX-478, vehicle H2O, VX-478 measured in plasma) [ug*hr/m1] | AUC ([1]; compound 229 PO, 40 mg/Kg molar equiv. of VX-478, vehicle PEG 400) [ug*hr/m1] | AUC ([1]; compound 229 PO, 40 mg/Kg molar equiv. of VX-478, vehicle TPGS/PEG 400/PG) [ug*hr/m1] | SMILES | AUC [2] [ng·h/mL] | Cmax [2] [ng/mL] | Tmax [2] [h] | Cmax ([1]; 41 mg/kg) [µM] | half-life ([1]; 41 mg/kg) [h] | Cmax ([1]; 50 mg/kg) [µM] | half-life ([1]; 50 mg/kg) [h] | AUC ([1]; VX-478 41 mg/Kg PO, vehicle 33% TPGS/PEG 400/PG) [ug*hr/m1] | AUC ([1]; VX-478 50 mg/Kg PO, vehicle 12.5% TPGS/PEG 400/PG) [ug*hr/m1] |
| --- | --- | --- | --- | --- | --- | --- | --- | --- | --- | --- | --- | --- | --- | --- | --- | --- |
| none of that compound was detected | equivalence in delivery | improved bioavailability | 10.6 | 11.7 | 7.4 | 8.2 | CC(C)CN(C[C@@H](OP(=O)(O)O)[C@H](Cc1ccccc1)NC(=O)O[C@H]1CCOC1)S(=O)(=O)c1ccc(N)cc1 [Compound 229] | – | – | – | – | – | – | – | – | – |
| – | – | – | – | – | – | – | CC(C)CN(C[C@@H](O)[C@H](Cc1ccccc1)NC(=O)O[C@H]1CCOC1)S(=O)(=O)c1ccc(N)cc1 [VX-478] | 23500 ± 7400 | 6800 ± 1100 | 1 ± 0.8 | 14 | 2.5 | 6 | 2.2 | 29.6 | 16.2 |
